How the values were obtained:
[1] = Neutralization of propyl mercaptane (headspace GC-MS); settings: 0.25 ml 4 mM test compound + 0.25 ml 4 mM propyl mercaptane in dimethylsulfoxide/H2O 1:1, room temperature, 3 h, vs blank samples
Protocol: A 23×75 mm-headspace vial is charged with 0.25 ml of a 4 mM-solution of the test compound in dimethylsulfoxide/H2O 1:1. One blank sample containing 0.25 ml of dimethylsulfoxide/H2O 1:1 is prepared per 3 test samples. The vials are sealed with a 20 mm-aluminium seal containing a rubber septum. At 15 min-intervals (which is the time of 1 GC-analysis run) 0.25 ml of a 4 mM-solution of propyl mercaptane in dimethylsulfoxide/H2O 1:1 is added to each sample via cannula.
The samples are left at room temperature for 3 h, then submitted to headspace analysis using a headspace auto sampler connected to a GC-MS apparatus. Per sample 250 μl of headspace is injected. The peak areas (MS-ion current) of propyl mercaptane is compared to the averaged value from the blank samples to calculate the reduction of headspace concentration.

[2] = Olfactory evaluation against sweat-malodour reconstitution (panel test); settings: 50 μl of 1% solution in ethanol on malodour treated cotton swatch; LMS rating, expert panel of 20 assessors; relative to swatch without test compound
Protocol: An ethanolic solution of axilla-malodour reconstitution is applied on a 1×1 cm cotton swatch (100 ∥l, 0.1% wt/wt), then 50 μl of the test compound (1% solution in ethanol) are dosed to the malodour treated swatches. The malodour intensity is rated on a LMS (labelled magnitude scale) by an expert panel of 20 assessors. The results are then expressed in % reduction relative to malodour of a swatch without adding a test compound.

[3] = Neutralization of human sweat in aqueous environment, two chamber sample (headspace GC-MS); settings: 5.0 μmol test compound on viscose filter, 16 h at 35° C., vs blank samples; for % Headspace reduction of malodours compounds: 3-mercapto-1-butanol: aqueous 3-mercapto-1-butanol (17 mM) with 3-methyl hexanoic acid (23 mM); for % Headspace reduction of malodours compounds: 3-methyl hexanoic acid: aqueous 3-methyl hexanoic acid (23 mM) with 3-mercapto-1-butanol (17 mM)
Protocol: A two chamber sample was prepared as depicted in FIG. 1. It is composed of the headspace vial (1′) described in example 26 as the outer containment and a standard HPLC-auto sampler vial (2′) as the inner containment. The test compound (5.0 μmol) is absorbed on viscose filter (3′) (applied as CH2Cl2-solution and let evaporate). An amount of 100 ul of an aqueous solution of 3-methyl hexanoic acid (23 mM) and 3-mercapto-1-butanol (17 mM), is placed on the bottom of the inner vial (2′). A screw cap containing the filter (3′) is screwed tightly on the HPLC-vial (2′), which is placed in the headspace vial (1′). The headspace vial is closed with an aluminium seal containing a rubber septum (5′). Blank samples containing an empty filter (3′) and the aqueous solution of 3-methyl hexanoic acid and 3-mercapto-1-butanol in the inner vial as described above are prepared (1 blank per 3 test samples). The samples are left standing for 16 h at 35° C., then submitted to headspace analysis as described in example 26.
The malodourant compounds (3-methyl hexanoic acid and 3-mercapto-1-butanol) diffuse through the filter into the outer volume (6′). Therefore a compound of formula 1 (neutralizing substance) applied on the filter (3′) will reduce the headspace concentration of the sweat malodourants in the outer volume compared to the blank samples.

SMILES: CCCC(=O)/C(=C/C(=O)OCC)C(=O)OCC
- % Headspace Reduction [1]: 100%

SMILES: CCOC(=O)C(O)C(C(C)=O)C(=O)OC(C)(C)C (stereo not shown)
- % Headspace Reduction [1]: 45%

SMILES: CC(=O)C(=CC(C)CCC=C(C)C)C(C)=O (stereo not shown)
- % Headspace Reduction [1]: 8%

SMILES: CCOC(=O)C(O)C(C(C)=O)C(=O)OCC (stereo not shown)
- % Headspace Reduction [1]: 62%

SMILES: CCOC(=O)C(C)=C(C(=O)OCC)C(=O)OCC
- % Headspace Reduction [1]: 20%

SMILES: CC(=O)C(=CC(C)C)C(C)=O
- % Headspace Reduction [1]: 34%

SMILES: CCOC(=O)C(OCC)C(C(C)=O)C(C)=O (stereo not shown)
- % Headspace Reduction [1]: 82%

SMILES: CCOC(=O)C(OCC)C(C(C)=O)C(=O)c1ccccc1 (stereo not shown)
- % Headspace Reduction [1]: 22%

SMILES: CCOC(=O)C(OC)C(C(C)=O)C(=O)OCC (stereo not shown)
- % Headspace Reduction [1]: 54%

SMILES: CCCC(=O)C(C(=O)OCC)C(OCC)C(=O)OCC (stereo not shown)
- % Headspace Reduction [1]: 38%

SMILES: CCOC(=O)C(O)C(C(=O)OCC)C(=O)c1ccccc1 (stereo not shown)
- % Headspace Reduction [1]: 20%

SMILES: CCOC(=O)C(OCC)C(C(=O)OCC)C(=O)c1ccccc1 (stereo not shown)
- % Headspace Reduction [1]: 10%

SMILES: CCOC(=O)C(O)C(C(=O)OC)C(=O)C(C)(C)C (stereo not shown)
- % Headspace Reduction [1]: 15%

SMILES: CCOC(=O)/C=C(\C(C)=O)C(=O)c1ccccc1
- % Headspace Reduction [1]: 100%

SMILES: CCOC(=O)/C=C(\C(=O)OC)C(=O)C(C)(C)C
- % Headspace Reduction [1]: 82%

SMILES: CCCC(=O)/C(C(=O)OCC)=C(\O)C(=O)OCC
- % Headspace Reduction [1]: 15%

SMILES: CCCCCCOC(=O)/C=C/C(=O)OCCCCCC [DHF, Dihexylfumarate, reference compound]
- % Reduction of axilla malodour intensity in panel test [2]: 68%
- % Headspace Reduction [1]: 5%
- % Headspace reduction of malodours compounds: 3-mercapto-1-butanol [3]: 10%
- % Headspace reduction of malodours compounds: 3-methyl hexanoic acid [3]: 0%

SMILES: CCOc1cc(C=C(C(C)=O)C(C)=O)ccc1O [Example 7]
- melting point: 126 to 128 °C

SMILES: CCOC(=O)/C=C(/C(C)=O)C(=O)OCC [drawing 36]
- % Headspace Reduction [1]: 100%

SMILES: CCOC(=O)C=C(C(C)=O)C(C)=O [drawing 38]
- % Headspace Reduction [1]: 100%

SMILES: CCOC(=O)C(OCC)C(C(C)=O)C(=O)OCC (stereo not shown) [drawing 42]
- % Headspace Reduction [1]: 64%

SMILES: CCOC(=O)/C=C(\C(=O)OCC)C(=O)c1ccccc1 [drawing 50]
- % Headspace Reduction [1]: 100%

SMILES: CCCCCCCC=C(C(=O)OCC)C(=O)OCC [drawing 55]
- % Headspace reduction of malodours compounds: 3-mercapto-1-butanol [3]: 22%
- % Headspace reduction of malodours compounds: 3-methyl hexanoic acid [3]: 0%

SMILES: CCCCCCC/C=C(/C(C)=O)C(=O)OCC [drawing 56]
- % Headspace reduction of malodours compounds: 3-mercapto-1-butanol [3]: 35%
- % Headspace reduction of malodours compounds: 3-methyl hexanoic acid [3]: 10%

SMILES: CCOC(=O)/C=C(/C(C)=O)C(=O)OCC [drawing 57]
- % Headspace reduction of malodours compounds: 3-mercapto-1-butanol [3]: 98%
- % Headspace reduction of malodours compounds: 3-methyl hexanoic acid [3]: 10%

SMILES: CCOC(=O)C=C(C(C)=O)C(C)=O [drawing 58]
- % Headspace reduction of malodours compounds: 3-mercapto-1-butanol [3]: 100%
- % Headspace reduction of malodours compounds: 3-methyl hexanoic acid [3]: 0%

SMILES: CCOC(=O)C(OCC)C(C(C)=O)C(=O)OCC (stereo not shown) [drawing 59]
- % Headspace reduction of malodours compounds: 3-mercapto-1-butanol [3]: 100%
- % Headspace reduction of malodours compounds: 3-methyl hexanoic acid [3]: 0%

SMILES: CCOC(=O)/C=C(\C(=O)OCC)C(=O)c1ccccc1 [drawing 60]
- % Headspace reduction of malodours compounds: 3-mercapto-1-butanol [3]: 85%
- % Headspace reduction of malodours compounds: 3-methyl hexanoic acid [3]: 28%

SMILES: CCOc1cc(C=C(C(C)=O)C(C)=O)ccc1O [drawing 61]
- % Headspace reduction of malodours compounds: 3-mercapto-1-butanol [3]: 41%
- % Headspace reduction of malodours compounds: 3-methyl hexanoic acid [3]: 9%

SMILES: CCCCCCCC=C(C(=O)OCC)C(=O)OCC [drawing 62]
- % Reduction of axilla malodour intensity in panel test [2]: 59%

SMILES: CCCCCCC/C=C(/C(C)=O)C(=O)OCC [drawing 63]
- % Reduction of axilla malodour intensity in panel test [2]: 82%

SMILES: CCOC(=O)/C=C(/C(C)=O)C(=O)OCC [drawing 64]
- % Reduction of axilla malodour intensity in panel test [2]: 76%

SMILES: CCOC(=O)C(OCC)C(C(C)=O)C(=O)OCC (stereo not shown) [drawing 65]
- % Reduction of axilla malodour intensity in panel test [2]: 67%

— patent publication US20080305066A1, “2-C-Substituted Propane-1,3-Dicarbonyl Compounds and Their Use in Neutralising Malodour” (GIVAUDAN SA, priority 2005, published 2008)
